Molecular target: T1, EGFR (ErbB1) d746-750 (Homo sapiens, UniProt P00533, DEL746-750)
T1 construct: purchased Thermo Fisher Scientific (Life Technologies) SelectScreen
Test: SelectScreen LanthaScreen
Type: binding
Details: 1 µM
Method in brief: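 SelectScreen broad panel; activity (Z'LYTE, Adapta) plus binding formats. ATP: Km app for CSF1R Z'LYTE; 10 for CAMK1 Adapta. Readout = % per kinase.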

T1 sequence (P00533 with tags, fused parts or gaps DEL746-750 limits assumed): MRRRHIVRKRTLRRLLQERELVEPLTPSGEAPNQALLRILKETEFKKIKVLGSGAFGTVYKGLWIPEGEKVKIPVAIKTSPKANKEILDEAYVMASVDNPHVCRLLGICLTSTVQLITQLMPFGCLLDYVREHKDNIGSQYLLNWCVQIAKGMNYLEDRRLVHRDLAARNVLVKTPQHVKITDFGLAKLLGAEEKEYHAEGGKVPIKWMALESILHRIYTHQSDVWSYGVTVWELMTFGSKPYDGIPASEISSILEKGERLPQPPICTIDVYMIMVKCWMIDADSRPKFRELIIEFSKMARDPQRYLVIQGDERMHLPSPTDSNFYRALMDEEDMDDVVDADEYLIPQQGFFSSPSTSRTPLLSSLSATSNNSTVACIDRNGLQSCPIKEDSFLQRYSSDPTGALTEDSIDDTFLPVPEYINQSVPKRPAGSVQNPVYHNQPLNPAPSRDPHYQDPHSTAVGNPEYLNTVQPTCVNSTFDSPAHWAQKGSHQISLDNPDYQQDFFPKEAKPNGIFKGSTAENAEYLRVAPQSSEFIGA

CN(C(=O)CN1CCOCC1)c1ccc2sc3c(-c4cccc5c(=O)cc(N6CC7CCC(C6)O7)oc45)cccc3c2c1 [NU5455]
% displacement: 5.8%

Reference: PMC6934184, “Selective DNA-PKcs inhibition extends the therapeutic index of localized radiotherapy and chemotherapy” (The Journal of Clinical Investigation, 2019)
